This is an account of results in patent US12319655B2, “RAF kinase inhibitors and methods of use thereof” (Deciphera Pharmaceuticals, LLC, priority 2021, dated 2025).

Some results are limits rather than exact numbers.

One experiment concerns A375 cells. Put plainly: A375 Cell Proliferation Assay (1). Format: cell-based. Conditions: Homo sapiens, A-375. In a few lines:
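Resazurin fluorescence (excitation 540 nm, emission 600 nm, after a further 5-6 h) gave IC50s from triplicate compound dilution series.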

In experiment [1] the target is A-Raf kinase (SEQ. ID No: 1) (Homo sapiens (Human), UniProt P10398, Y301D/Y302D). Put plainly: Biochemical Assay for A-Raf (1). Conditions: Table J, assay version (1); read-out: ARAF (1) IC50. In short, it runs like this:
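IC50 values were derived by four-parameter sigmoidal fitting of percent inhibition, calculated from reaction rates over the 4–5 h window. Absorbance at 340 nm was tracked for 6 h at 30 °C via coupled PK/LDH NADH depletion. Conditions: 1 mM ATP, 30.1 nM MEK substrate, 5.55 nM A-Raf (Y301D/Y302D), Tris pH 7.5, 1% DMSO.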

In the next experiment the test system is H2405 cells. In words: H2405 Cell Proliferation Assay (1). The class given is cell-based. The conditions noted are these: Homo sapiens, NCI-H2405. In a few lines: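 Viability was read by resazurin reduction (ex 540 nm, em 600 nm; 5-6 h with 40 μL of 440 μM stock) after 67-72 h compound exposure at 37 °C.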
Another experiment has as its system Miapaca-2 cells. Put plainly: MiaPaca-2 Cell Proliferation Assay (1). Conditions: Homo sapiens, MIA PaCa-2, single agent, read-out: MiaPaca2 (1) IC50. Format: cell-based. In short, it runs like this: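 Resazurin was added after compound exposure and incubated 5-6 h, then fluorescence read at 540 nm excitation and 600 nm emission to give IC50.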

A-Raf kinase (SEQ. ID No: 1), sequence (P10398 other isoform, or with tags, fused parts or gaps Y301D (already in the parent)/Y302D (already in the parent)): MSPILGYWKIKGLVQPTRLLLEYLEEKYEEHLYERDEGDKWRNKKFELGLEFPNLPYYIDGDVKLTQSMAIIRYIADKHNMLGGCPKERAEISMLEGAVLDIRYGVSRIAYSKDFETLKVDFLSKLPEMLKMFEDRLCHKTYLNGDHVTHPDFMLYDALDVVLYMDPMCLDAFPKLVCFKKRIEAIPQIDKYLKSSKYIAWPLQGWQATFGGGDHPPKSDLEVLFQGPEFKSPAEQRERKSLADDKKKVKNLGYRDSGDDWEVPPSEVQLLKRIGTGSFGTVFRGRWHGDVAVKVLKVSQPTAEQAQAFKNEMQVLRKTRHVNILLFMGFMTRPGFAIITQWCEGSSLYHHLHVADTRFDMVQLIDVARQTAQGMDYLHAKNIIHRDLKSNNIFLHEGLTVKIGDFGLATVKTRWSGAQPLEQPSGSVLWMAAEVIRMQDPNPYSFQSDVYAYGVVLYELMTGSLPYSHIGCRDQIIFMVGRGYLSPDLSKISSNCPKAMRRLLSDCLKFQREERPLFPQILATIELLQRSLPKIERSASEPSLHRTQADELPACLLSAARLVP

Regarding `CNC(=O)c1cc(-c2cc(-c3cc(NC(=O)c4ccnc(C(C)(C)C#N)c4)ccc3C#N)ccn2)ccn1` [Example 247], the values for the IC50 (with A375 cells; in experiment [1]; in the experiment with H2405 cells) were 1000 to 10000 nM, 1000 to 10000 nM and 100 to 500 nM, respectively.
For `CNC(=O)c1cc(-c2nccc(-c3cc(NC(=O)c4ccnc(C(C)(C)C#N)c4)cnc3C)n2)ccn1` [Example 194], the IC50 (as a rule, the concentration at which inhibition is half-maximal) in the experiment with A375 cells lay in the range of 500 to 1000 nM; in the experiment with Miapaca-2 cells it was 1 to 10 µM; in experiment [1], 1000 to 10000 nM.
For `CNC(=O)c1cc(-c2cc(-c3cc(NC(=O)c4cnnc(C5CC5)c4)ccc3C)ccn2)ccn1` [Example 215], in that order: 500 to 1000 nM, 1 to 10 µM and 1000 to 10000 nM.
For `Cc1ncc(NC(=O)c2ccnc(C(C)(C)C#N)c2)cc1-c1cccc(-c2cc(NC(=O)C3CC3)ncn2)n1` [Example 226], in that order: 1000 to 10000 nM, 1 to 10 µM and 1000 to 10000 nM.
Take `CNC(=O)c1cc(-c2cc(-c3cc(NC(=O)c4ccnc(C(C)(C)C#N)c4)ccc3F)cc(C)n2)ccn1` [Example 259]: the IC50 is 500 to 1000 nM in the experiment on A375 cells, 1000 to 10000 nM in experiment [1] and 100 to 500 nM in the experiment with H2405 cells.
On the same counts, the results for `Cc1ncc(NC(=O)c2ccnc(C(C)(C)C#N)c2)cc1-c1cccc(-c2cc(N)ncn2)c1` [Example 207] are 1000 to 10000 nM, 1000 to 10000 nM and 1000 to 10000 nM.
On to `Cc1ccc(NC(=O)c2ccnc(C(C)(C)C#N)c2)cc1-c1cccc(-c2cc(NC(=O)C3(C)CC3)ncn2)c1` [Example 197], for which the IC50 in the experiment on A375 cells is not above 100 nM; in the experiment on Miapaca-2 cells it was 1 to 10 µM; in experiment [1] it was 1000 to 10000 nM.
Turning to `Cc1ncc(NC(=O)c2ccnc(C(C)C)c2)cc1-c1cccc(-c2ccnc(NC(=O)C3CC3)c2)n1` [Example 269], the IC50 is not above 100 nM with A375 cells, 1000 to 10000 nM in experiment [1] and not above 100 nM in the experiment on H2405 cells.
As to `Cc1ccc(NC(=O)c2ccnc(C(F)(F)F)c2)cc1-c1ccnc(-c2ccnc3c2CC(=O)N3)c1` [Example 18], the figures for the IC50 (in the experiment with A375 cells; in the experiment on Miapaca-2 cells; in experiment [1]) were 1000 to 10000 nM, 1 to 10 µM and 1000 to 10000 nM, respectively.
As for `Cc1ccc(NC(=O)c2ccnc(C(C)(C)C#N)c2)cc1-c1ccnc(-c2ccnc(NC(=O)C3CC3)c2)n1` [Example 257], the figures for the IC50 (in the experiment on A375 cells; with Miapaca-2 cells; in experiment [1]) were not above 100 nM, 1 to 10 µM and 500 to 1000 nM, respectively.
`Cc1ccc(NC(=O)c2ccnc(C(C)(C)C#N)c2)cc1-c1cccc(-c2ccnc(NC(=O)C3CC3)c2)c1` [Example 223]: the IC50 in the experiment on A375 cells was not above 100 nM; in experiment [1], 500 to 1000 nM; in the experiment with H2405 cells, not above 100 nM.
With `CNC(=O)c1cc(-c2cccc(-c3cc(NC(=O)c4ccnc(C(C)(C)C#N)c4)cnc3C)c2)cnn1` [Example 201], the figures for the IC50 (in the experiment with A375 cells; in experiment [1]; in the experiment on H2405 cells) were 100 to 500 nM, 1000 to 10000 nM and 100 to 500 nM, respectively.
Turning to `Cc1ccc(NC(=O)c2ccnc(C(F)(F)F)c2)cc1-c1ccnc(-c2ccnc(NC(=O)CN(C)C)c2)c1` [Example 17], the IC50 with A375 cells fell in the range of 100 to 500 nM; in the experiment on Miapaca-2 cells, 1 to 10 µM; in experiment [1], 1000 to 10000 nM.
For `Cc1ccc(NC(=O)c2ccnc(C(C)(C)C#N)c2)cc1-c1cccc(-c2cc(NC(=O)C3CC3)ncn2)n1` [Example 233], in that order: 500 to 1000 nM, 1 to 10 µM and 1000 to 10000 nM.
Consider `CNC(=O)c1cc(-c2ccnc(-c3cc(NC(=O)c4ccnc(C(C)(C)C#N)c4)cnc3C)n2)ccn1` [Example 199], for which the IC50 in the experiment with A375 cells lay within 1000 to 10000 nM; in experiment [1], 1000 to 10000 nM; in the experiment with H2405 cells, 100 to 500 nM.
`CNC(=O)c1cc(-c2cc(-c3cc(NC(=O)c4ccnc(C(C)(C)C#N)c4)ccc3F)ccn2)ccn1` [Example 205]: the half-maximal inhibitory concentration (IC50) with A375 cells is 100 to 500 nM; in experiment [1], 1000 to 10000 nM.
In the case of `CNC(=O)c1cc(-c2ccnc(-c3cc(NC(=O)c4ccnc(C(C)(C)C#N)c4)c(F)cc3C)n2)ccn1` [Example 242], the IC50 in the experiment with A375 cells lay within 500 to 1000 nM; in experiment [1], 1000 to 10000 nM; in the experiment with H2405 cells it was 100 to 500 nM.
For `Cc1ccc(NC(=O)c2ccnc(C3CC3)c2)cc1-c1cccc(-c2cc(NC(=O)C3CC3)ncn2)c1` [Example 255], in that order: not above 100 nM, 1000 to 10000 nM and 100 to 500 nM.
With `Cc1ncc(NC(=O)c2ccnc(C(C)(C)C#N)c2)cc1-c1ccnc(-c2ccnc(NC(=O)C(C)(C)C#N)c2)c1` [Example 219], the IC50 in the experiment on A375 cells fell in the range of 100 to 500 nM; in the experiment on Miapaca-2 cells, 1 to 10 µM; in experiment [1], 1000 to 10000 nM.
On the same counts, the results for `Cc1ccc(NC(=O)c2ccnc(C(F)(F)F)c2)cc1-c1cc(-c2ccnc(NC(=O)C3CC3)c2)n(C)c(=O)c1` [Example 13] are 1000 to 10000 nM, 1 to 10 µM and 1000 to 10000 nM.
For `COC(C)(C)c1cc(C(=O)Nc2ccc(C)c(-c3ccnc(-c4ccnc(NC(=O)C5CC5)c4)n3)c2)ccn1` [Example 190], in that order: not above 100 nM, 1 to 10 µM and 500 to 1000 nM.
On the same counts, the results for `Cc1cc(F)c(NC(=O)c2ccnc(C3(C#N)CC3)c2)cc1-c1ccnc(-c2ccnc(NC(=O)C3CC3)c2)n1` [Example 262] are not above 100 nM, 1 to 10 µM and 500 to 1000 nM.
Regarding `Cc1ccc(NC(=O)c2ccnc(C(C)(C)C#N)c2)cc1-c1cccc(-c2cc(NC(=O)C3(F)CC3)ncn2)c1` [Example 200], the figures for the IC50 (with A375 cells; with Miapaca-2 cells; in experiment [1]) were not above 100 nM, 1 to 10 µM and 1000 to 10000 nM, respectively.
For `Cc1cc(F)c(NC(=O)c2cnnc(C3CC3)c2)cc1-c1nccc(-c2ccnc(NC(=O)C3CC3)c2)n1` [Example 252], in that order: 1000 to 10000 nM, 1 to 10 µM and 1000 to 10000 nM.
For `CC(=O)Nc1cc(-c2cc(-c3cc(NC(=O)c4ccnc(C(F)(F)F)c4)ccc3C)cc(C3CC3)n2)ccn1` [Example 14], in that order: not above 100 nM, 1 to 10 µM and 1000 to 10000 nM.
For `Cc1cc(-c2cc(NC(=O)c3ccnc(C(F)(F)F)c3)ccc2C)cc(-c2ccnc3c2CC(=O)N3)n1` [Example 20], in that order: 1000 to 10000 nM, 1 to 10 µM and 1000 to 10000 nM.
Take `Cc1ncc(NC(=O)c2ccnc(C(C)(C)C#N)c2)cc1-c1cccc(-c2cc(NC(=O)C(C)(C)C)ncn2)c1` [Example 213]: the IC50 fell in the range of 1 to 10 µM in the experiment on Miapaca-2 cells and 1000 to 10000 nM in experiment [1].
On to `Cc1ccc(NC(=O)c2ccnc(C3(C#N)CC3)c2)cc1-c1cccc(-c2cc(NC(=O)C3CC3)ncn2)c1` [Example 203], for which the IC50 in the experiment on A375 cells was not above 100 nM; in the experiment with Miapaca-2 cells it was 1 to 10 µM; in experiment [1], 1000 to 10000 nM.
On the same counts, the results for `Cc1cc(F)c(NC(=O)c2cnnc(C3CC3)c2)cc1-c1ccnc(-c2ccnc(NC(=O)C3CC3)c2)n1` [Example 263] are 1000 to 10000 nM, 1 to 10 µM and 1000 to 10000 nM.
Turning to `Cc1ccc(NC(=O)c2ccnc(C3(C#N)CC3)c2)cc1-c1cccc(-c2cc(NC(=O)C3CC3)ncn2)n1` [Example 220], the IC50 was in the range of 1000 to 10000 nM with A375 cells, 1 to 10 µM in the experiment on Miapaca-2 cells and 1000 to 10000 nM in experiment [1].
On to `Cc1ccc(NC(=O)c2ccnc(C(C)(C)C#N)c2)cc1-c1cc(-c2cc(NC(=O)C3CC3)ncn2)cc(C2CC2)c1` [Example 216], for which the IC50 in the experiment with A375 cells is not above 100 nM; with Miapaca-2 cells it was 1 to 10 µM; in experiment [1] it was 1000 to 10000 nM.
